Results as given in patent publication US20220249447A1, “CF3-, OCF3-, SCF3-, and SF5-Containing Antibacterial Agents” (Purdue Research Foundation, priority 2019, published 2022).
≈ marks a conversion by molar mass, not a printed value.

Assays:
VRE ATCC 51575 = test: MIC, broth microdilution, VRE ATCC 51575; format: cell-based; conditions: Enterococcus
Method: (§1) Bacteria were cultured in cation-adjusted Mueller Hinton Broth (for strains in Tables 1-3) or Brain Heart Infusion broth (for Enterococcus faecium) or Tryptic Soy Broth (all other bacteria) in a 96-well plate at 37° C. for at least 20 hours. The MIC was classified as the lowest concentration where no visual growth of bacteria was observed. The minimum bactericidal concentration (MBC) was tested by spotting 4 μL from wells with no growth onto Tryptic Soy Agar (TSA) plates. Plates were incubated at 37° C. for at least 18 hours before recording the MBC.

E. faecalis ATCC 29212 = test: MIC, broth microdilution, E. faecalis ATCC 29212; format: cell-based; conditions: Enterococcus faecalis, ATCC29212
Method: as §1

[1] = test system: C. difficile NR-32891 (P13); test: MIC against C. difficile NR-32891 (P13); format: cell-based; conditions: Clostridioides difficile; read-out: MIC C. difficile NR-32891 (P13)
Method: as §1

[2] = test system: C. difficile NR-32883 (P2); test: MIC against C. difficile NR-32883 (P2); format: cell-based; conditions: Clostridioides difficile; read-out: MIC C. difficile NR-32883 (P2)
Method: as §1

S. aureus = test: MIC, broth microdilution, S. aureus; format: cell-based; conditions: Staphylococcus aureus
In short: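 MIC was read by eye as the lowest compound concentration showing no bacterial growth, after at least 20 hours at 37° C in microdilution plates containing cation-adjusted Mueller Hinton, Brain Heart Infusion or Tryptic Soy broth, according to strain.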

MRSA ATCC 33592 = test: MIC, broth microdilution, MRSA ATCC 33592; format: cell-based, methicillin-resistant S. aureus; conditions: Staphylococcus aureus
In short: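 MRSA was grown in cation-adjusted Mueller Hinton Broth at 37° C for at least 20 h. MIC was taken as the lowest concentration with no visible growth.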

[3] = test system: C. difficile ATCC BAA 1801; test: MIC against C. difficile ATCC BAA 1801; format: cell-based; conditions: Clostridioides difficile, BAA1801; read-out: MIC C. difficile ATCC BAA 1801
Method: as §1

[4] = test system: C. difficile NR-13432 (isolate 6); test: MIC against C. difficile NR-13432 (isolate 6); format: cell-based; conditions: Clostridioides difficile; read-out: MIC C. difficile NR-13432 (isolate 6)
Method: as §1

C. difficile ATCC 43255 = test: MIC against C. difficile ATCC 43255; format: cell-based; conditions: Clostridioides difficile, ATCC43255; read-out: MIC C. difficile ATCC 43255
Method: as §1

[5] = test system: L. monocytogenes ATCC 19115; test: MIC, broth microdilution, L. monocytogenes ATCC 19115; format: cell-based; conditions: Listeria monocytogenes, ATCC19115
Method: as §1

[6] = test system: C. difficile NR-32904 (P30); test: MIC against C. difficile NR-32904 (P30); format: cell-based; conditions: Clostridioides difficile; read-out: MIC C. difficile NR-32904 (P30)
Method: as §1

[7] = test system: C. difficile NR-32895 (P19); test: MIC against C. difficile NR-32895 (P19); format: cell-based; conditions: Clostridioides difficile; read-out: MIC C. difficile NR-32895 (P19)
Method: as §1

MRSA USA300 cells = test: Time-kill assay; format: cell-based; conditions: for Δlog2 CFU/mL: MRSA USA300, 3× MIC or 6× MIC, up to 24 hours
Method: The time-kill analysis was performed as previously described^29. […] Aliquots (100 μL) were collected from each treatment after 0, 2, 4, 8, 12, and 24 hours of incubation at 37° C. and subsequently serially diluted in phosphate-buffered saline (PBS). Bacteria were then transferred to TSA plates and incubated at 37° C. for 18-20 hours before viable CFU/mL was determined (see FIG. 2).

[8] = test system: C. difficile NR-13435 (isolate 9); test: MIC against C. difficile NR-13435 (isolate 9); format: cell-based; conditions: Clostridioides difficile; read-out: MIC C. difficile NR-13435 (isolate 9)
Method: as §1

[9] = test system: Neisseria gonorrhea strain 181; test: MIC against Neisseria gonorrhea strain 181; format: cell-based
Method: as §1

Compound	MIC (VRE ATCC 51575)	MIC (E. faecalis ATCC 29212)	MIC [1]	MIC [2]	MIC (S. aureus)	MIC (MRSA ATCC 33592)	MIC [3]	MIC [4]	MIC (C. difficile ATCC 43255)	MIC [5]	MIC [6]	MIC [7]	Bactericidal/Bacteriostatic (MRSA USA300 cells)	Δlog2 CFU/mL (MRSA USA300 cells)	MIC [8]	MIC [9]
O=C(Nc1nnc(-c2cccs2)o1)c1ccc(S(F)(F)(F)(F)F)cc1 [HSGN-144, 4-(pentafluoro-sulfanyl)-N-(5-(thiophen-2-yl)-1,3,4-oxadiazol-2-yl)benzamide]	2 µg/mL (≈ 5.03 µM)	2 µg/mL (≈ 5.03 µM)	0.125 µg/mL (≈ 0.315 µM)	0.003 µg/mL (≈ 0.00755 µM)	0.25 µg/mL (≈ 0.629 µM)	0.5 µg/mL (≈ 1.26 µM)	0.03 µg/mL (≈ 0.0755 µM)	0.015 µg/mL (≈ 0.0378 µM)	0.125 µg/mL (≈ 0.315 µM)	1 µg/mL (≈ 2.52 µM)	0.125 µg/mL (≈ 0.315 µM)	0.06 µg/mL (≈ 0.151 µM)	Bactericidal	3.96	0.015 µg/mL (≈ 0.0378 µM)	
O=C(Nc1nnc(-c2cccs2)o1)c1ccc(OC(F)(F)F)cc1 [HSGN-145, N-(5-(thiophen-2-yl)-1,3,4-oxadiazol-2-yl)-4-(trifluoromethoxy)benzamide]	8 µg/mL (≈ 22.5 µM)	> 8 µg/mL	2 µg/mL (≈ 5.63 µM)	1 µg/mL (≈ 2.81 µM)	1 µg/mL (≈ 2.81 µM)	1 µg/mL (≈ 2.81 µM)	0.5 µg/mL (≈ 1.41 µM)	0.5 µg/mL (≈ 1.41 µM)	0.5 µg/mL (≈ 1.41 µM)	8 µg/mL (≈ 22.5 µM)	1 µg/mL (≈ 2.81 µM)	1 µg/mL (≈ 2.81 µM)	Bacteriostatic	0.69	0.5 µg/mL (≈ 1.41 µM)	
O=C(Nc1nnc(-c2cccs2)o1)c1ccc(SC(F)(F)F)cc1 [HSGN-148, N-(5-(thiophen-2-yl)-1,3,4-oxadiazol-2-yl)-4-((trifluoromethyl)thio)benzamide]	4 µg/mL (≈ 10.8 µM)	4 µg/mL (≈ 10.8 µM)	0.5 µg/mL (≈ 1.35 µM)	0.5 µg/mL (≈ 1.35 µM)	1 µg/mL (≈ 2.69 µM)	0.5 µg/mL (≈ 1.35 µM)	0.5 µg/mL (≈ 1.35 µM)	0.5 µg/mL (≈ 1.35 µM)	0.5 µg/mL (≈ 1.35 µM)	2 µg/mL (≈ 5.39 µM)	0.5 µg/mL (≈ 1.35 µM)	0.5 µg/mL (≈ 1.35 µM)	Bactericidal	4.2	0.5 µg/mL (≈ 1.35 µM)	0.06 µg/mL (≈ 0.162 µM)
O=C(Nc1nnc(-c2cccc(Cl)c2)o1)c1ccc(SC(F)(F)F)cc1 [HSGN-204, N-(5-(3-chlorophenyl)-1,3,4-oxadiazol-2-yl)-4-((trifluoromethyl)thio)benzamide]	0.25 µg/mL (≈ 0.625 µM)	0.25 µg/mL (≈ 0.625 µM)	0.03 µg/mL (≈ 0.075 µM)	0.003 µg/mL (≈ 0.0075 µM)	0.125 µg/mL (≈ 0.313 µM)	0.125 µg/mL (≈ 0.313 µM)	0.03 µg/mL (≈ 0.075 µM)	0.03 µg/mL (≈ 0.075 µM)	0.003 µg/mL (≈ 0.0075 µM)	0.125 µg/mL (≈ 0.313 µM)	0.015 µg/mL (≈ 0.0375 µM)	0.007 µg/mL (≈ 0.0175 µM)			0.007 µg/mL (≈ 0.0175 µM)	0.25 µg/mL (≈ 0.625 µM)
O=C(Nc1nnc(-c2cccc(F)c2)o1)c1ccc(SC(F)(F)F)cc1 [HSGN-205, N-(5-(3-fluorophenyl)-1,3,4-oxadiazol-2-yl)-4-((trifluoromethyl)thio)benzamide]	4 µg/mL (≈ 10.4 µM)	2 µg/mL (≈ 5.22 µM)	0.03 µg/mL (≈ 0.0783 µM)	0.003 µg/mL (≈ 0.00783 µM)	0.5 µg/mL (≈ 1.3 µM)	0.25 µg/mL (≈ 0.652 µM)	0.03 µg/mL (≈ 0.0783 µM)	0.03 µg/mL (≈ 0.0783 µM)	0.003 µg/mL (≈ 0.00783 µM)	1 µg/mL (≈ 2.61 µM)	0.015 µg/mL (≈ 0.0391 µM)	0.007 µg/mL (≈ 0.0183 µM)			0.007 µg/mL (≈ 0.0183 µM)	0.25 µg/mL (≈ 0.652 µM)
O=C(Nc1nnc(-c2ccc(Cl)s2)o1)c1ccc(SC(F)(F)F)cc1 [HSGN-210, N-(5-(5-chlorothiophen-2-yl)-1,3,4-oxadiazol-2-yl)-4-((trifluoromethyl)thio)benzamide]	0.5 µg/mL (≈ 1.23 µM)	0.5 µg/mL (≈ 1.23 µM)	0.06 µg/mL (≈ 0.148 µM)	0.003 µg/mL (≈ 0.00739 µM)	0.25 µg/mL (≈ 0.616 µM)	0.25 µg/mL (≈ 0.616 µM)	0.06 µg/mL (≈ 0.148 µM)	0.015 µg/mL (≈ 0.037 µM)	0.007 µg/mL (≈ 0.0172 µM)	0.25 µg/mL (≈ 0.616 µM)	0.06 µg/mL (≈ 0.148 µM)	0.03 µg/mL (≈ 0.0739 µM)			0.003 µg/mL (≈ 0.00739 µM)	0.5 µg/mL (≈ 1.23 µM)
O=C(Nc1nnc(-c2cc(Cl)cc(Cl)c2)o1)c1ccc(SC(F)(F)F)cc1 [HSGN-218, N-(5-(3,5-dichlorophenyl)-1,3,4-oxadiazol-2-yl)-4-((trifluoromethyl)thio)benzamide]	0.25 µg/mL (≈ 0.576 µM)	0.25 µg/mL (≈ 0.576 µM)	0.007 µg/mL (≈ 0.0161 µM)	0.007 µg/mL (≈ 0.0161 µM)	0.0625 µg/mL (≈ 0.144 µM)	0.0625 µg/mL (≈ 0.144 µM)	0.03 µg/mL (≈ 0.0691 µM)	0.03 µg/mL (≈ 0.0691 µM)	0.015 µg/mL (≈ 0.0345 µM)	0.125 µg/mL (≈ 0.288 µM)	0.007 µg/mL (≈ 0.0161 µM)	0.007 µg/mL (≈ 0.0161 µM)			0.003 µg/mL (≈ 0.00691 µM)	0.125 µg/mL (≈ 0.288 µM)
O=C(Nc1nnc(-c2cccc(F)c2)o1)c1ccc(OC(F)(F)F)cc1 [HSGN-237, N-(5-(3-fluorophenyl)-1,3,4-oxadiazol-2-yl)-4-(trifluoromethoxy)benzamide]	1 µg/mL (≈ 2.72 µM)	1 µg/mL (≈ 2.72 µM)	0.125 µg/mL (≈ 0.34 µM)	0.03 µg/mL (≈ 0.0817 µM)	0.5 µg/mL (≈ 1.36 µM)	0.5 µg/mL (≈ 1.36 µM)	0.06 µg/mL (≈ 0.163 µM)	0.06 µg/mL (≈ 0.163 µM)	0.03 µg/mL (≈ 0.0817 µM)	0.5 µg/mL (≈ 1.36 µM)	0.03 µg/mL (≈ 0.0817 µM)	0.03 µg/mL (≈ 0.0817 µM)			0.03 µg/mL (≈ 0.0817 µM)	0.125 µg/mL (≈ 0.34 µM)
O=C(Nc1nnc(-c2ccc(Cl)s2)o1)c1ccc(OC(F)(F)F)cc1 [HSGN-238, N-(5-(5-chlorothiophen-2-yl)-1,3,4-oxadiazol-2-yl)-4-(trifluoromethoxy)benzamide]	1 µg/mL (≈ 2.57 µM)	1 µg/mL (≈ 2.57 µM)	0.06 µg/mL (≈ 0.154 µM)	0.007 µg/mL (≈ 0.018 µM)	0.25 µg/mL (≈ 0.641 µM)	0.25 µg/mL (≈ 0.641 µM)	0.03 µg/mL (≈ 0.077 µM)	0.03 µg/mL (≈ 0.077 µM)	0.06 µg/mL (≈ 0.154 µM)	0.5 µg/mL (≈ 1.28 µM)	0.015 µg/mL (≈ 0.0385 µM)	0.015 µg/mL (≈ 0.0385 µM)			0.015 µg/mL (≈ 0.0385 µM)	0.125 µg/mL (≈ 0.321 µM)
